# Measured values published in patent US11413324B2, “Compositions and methods for treating peripheral nerve disease, disorders, and injuries” (University of Virginia Patent Foundation, priority 2017, dated 2022).
# “Also recorded” adds a separate entry of the source. Counter-ions that a name gives are not always drawn.
# Key:
# [1] = system: peripheral olig2^+ OPCs; assay: Quantification of peripheral olig2+ OPCs at 3 dpf in drug-treated olig2:dsred larvae; format: in vivo, zebrafish; conditions: for number of peripheral olig2+ OPCs: 24 to 72 hpf; for peripherally migrated OPCs at 3 dpf after neurotransmitter receptor antagonist: compared to control
# [2] = system: peripheral olig2^+ cells; assay: Chemical screen of the LOPAC 1280 library: peripheral olig2+ cells scored in olig2:dsred larvae at 72 hpf; format: in vivo, zebrafish; conditions: 4 μM, 24 to 72 hpf, pilot experiment, positive control
# [3] = system: peripheral OPCs myelinating spinal motor axons; assay: gpr126 mutant peripheral neuropathy model: peripheral OPCs and myelination of spinal motor nerves; format: in vivo, zebrafish
# Text: This led us to hypothesize that OPCs could be pharmacologically recruited onto peripheral nerves in order to myelinate them. […] However, in these studies, OPCs populated the nerve in the context of genetic mutations resulting in the death or absence of both SCs and MEP glia. Therefore, we wanted to determine if it was possible to recruit OPCs to myelinate peripheral motor nerves in a model more closely resembling human peripheral neuropathies, in which SCs are present, but fail to myelinate. To do this, we used zebrafish harboring a mutation in g protein coupled receptor 126 (gpr126), a model of peripheral neuropathy in which SCs ensheath, but fail to myelinate peripheral nerves (Monk et al., 2009). OLs are present in normal numbers in these mutants, and central myelination is completely normal (Monk et al., 2009).
# Therefore, we tested whether treatment with the A2a AR antagonist would result in peripherally-migrated OPCs ensheathing peripheral spinal motor nerves in these mutants. […] We then performed in vivo, time-lapse imaging on nkx2.2a:megfp;olig2:dsred;gpr126^−/− mutants in order to visualize whether these peripheral OPCs initiated myelination of peripheral nerves. The transgene nkx2.2a:megfp is expressed by pre-myelinating OPCs and enables clear visualization of membrane structures (Kucenas et al., 2008a). No other cells in the spinal cord or at the MEP TZ express both nkx2.2a and olig2, so use of these transgenes allowed us to unambiguously identify membrane sheaths coming from OPCs. […] Thin OPC membrane processes extended toward peripheral motor axons and formed membrane sheaths around them (FIG. 6D). The timing of sheath initiation on peripheral axons coincided with sheath initiation within the spinal cord, and some peripheral sheaths stabilized and elongated during the course of the time-lapse (FIG. 6D). This time-lapse data rules out the possibility that SCH-58261 treatment stimulates SCs to myelinate the nerve, since nkx2.2a^+ OPC processes can be clearly seen ensheathing nerve segments.
# To examine whether these membrane sheaths were in fact myelin, we treated gpr126 mutants from 36 to 72 hpf with SCH-58261 or DMSO, fixed larvae at 4 dpf, and labeled with an antibody specific to myelin basic protein (MBP) using immunohistochemistry (Kucenas et al., 2009). In mutants treated with DMSO, we observed MBP only on a short segment of the proximal nerve root (FIG. 6E), which is consistent with our previous data showing that differentiated MEP glia express MBP in this region (Smith et al., 2014). […] As further confirmation that peripheral OPCs myelinate spinal motor nerve roots following treatment with SCH-58261, we imaged gpr126^−/− larvae expressing the transgenes mbp:egfp and olig2:dsred from 72 to 86 hpf (n=3) (FIG. 6F). In these time-lapses, we observed olig2^+ OPCs beginning to ensheath peripheral nerves with mbp^+ membrane tubes. Out of 12 nerves imaged, OPCs migrated out of the spinal cord onto 4 nerves, and an additional 3 nerves had OPCs already present at the beginning of the time-lapse. Multiple EGFP^+ membrane tubes extended from single OPCs and ensheathed most of the nerve root on all 7 nerves with OPCs present. These long membrane tubes were consistent with the pattern of MBP antibody labeling on the nerves of SCH-58261-treated mutants (FIG. 6E). Both the MBP antibody and mbp:egfp labeling were closely associated with an olig2^+ cell body, providing further evidence that peripherally-migrated OPCs and not SCs, initiate myelination in gpr126 mutants treated with SCH-58261 (FIGS. 6D&E). From these experiments, we conclude that OPCs can be recruited onto peripheral motor nerves and initiate myelination, even in the presence of MEP glia and SCs.
# [4] = system: Eos^+ cells; assay: Number of Eos+ cells (Schwann cells and MEP glia) per motor nerve in sox10:eos larvae; format: in vivo, zebrafish; conditions: 36 to 72 hpf, 72 hpf sox10:eos larvae, p=0.08
# [5] = system: MEP glia; assay: Presence of MEP glia (sox10+/olig2+ cells, wif1 in situ hybridization) on motor nerves; format: in vivo, zebrafish; conditions: for percentage of motor nerves with sox10+/olig2+ MEP glia at the MEP TZ: 36 to 72 hpf, vs DMSO, p=0.14
# Procedure: Larvae were fixed in 4% PFA at 4° C. overnight and stored in 100% methanol at −20° C. and processed for in situ RNA hybridization. Plasmids were linearized with appropriate restriction enzymes and cRNA preparation was carried out using Roche DIG-labeling reagents and RNA polymerases (NEB). We used a previously published probe for wif1 (Smith et al., 2014). After in situ hybridization, embryos were embedded in 1.5% agarose/30% sucrose and frozen in 2-methylbutane chilled by immersion in liquid nitrogen. We collected 20 μm transverse sections on microscope slides using a cryostat microtome and covered with 75% glycerol. Images were obtained using a Zeiss AxioObserver inverted microscope using a 40× oil immersion objective. All images were imported into Adobe Photoshop. Adjustments were limited to levels, contrast, and cropping.
# We therefore sought to determine whether antagonizing the A2a AR lead to ectopic OPC migration simply by perturbing MEP glial development. MEP glia can be identified by the co-expression of sox10:eos and olig2:dsred as well as expression of wnt inhibitory factor 1 (wif1) (Smith et al., 2014).
# [6] = system: larvae; assay: Toxicity, death or morphological defects of treated or injected larvae; conditions: 40 μM, 36 to 72 hpf, n=1 survivor
# [7] = system: OPC migration through the MEP TZ; conditions: 10 μM, 24 to 72 hpf, 3 larvae imaged 55 to 72 hpf
# Procedure: Embryos were anesthetized with 0.01% 3-aminobenzoic acid ester (Tricaine), immersed in 0.8% low-melting point agarose and mounted laterally in glass-bottomed 35 mm petri dishes (Electron Microscopy Sciences). After mounting, the petri dish was filled with egg water containing PTU and Tricaine. For some experiments, chemical compounds were also dissolved in the water. A 25× multi-immersion objective (NA=0.8), 40× oil objective (NA=1.4) and a 40× water objective (NA=1.1) mounted on a motorized Zeiss AxioObserver ZI microscope equipped with a Quorum WaveFX-XI spinning disc confocal system (Quorum Technologies Inc.) were used to capture images. Image processing was performed with MetaMorph and Photoshop to enhance brightness and contrast of images. The Fiji plugin MTrackJ was used to annotate time-lapse movies (Meijering et al., 2012).
# In order to distinguish OPCs from motor neurons, we used embryos expressing olig2:dsred and sox10:eos, where sox10 regulatory elements drive expression of Eos in central and peripheral glia. […] We treated these embryos with 10 μM of CGS-15943 from 24 to 72 hpf and imaged 3 larvae (10 nerves total) from 55 to 72 hpf.
# [8] = system: perineurial glia (PG); conditions: 1.25 μm CGS-15943, 36 to 55 hpf
# [9] = dose responses of selective A1, A2b, A3 antagonists
# [10] = gpr126−/− mbp:egfp;olig2:dsred, imaged 72 to 86 hpf, 12 nerves imaged
compound,measurement,setting,value
CCCn1c(=O)c2[nH]c(-c3ccc(OCC(=O)Nc4ccc(C#N)cc4)cc3)nc2n(CCC)c1=O [MRS-1754],number of peripheral olig2+ OPCs,[1]; [9],did not observe peripheral OPCs
CCOC(=O)C1=C(C)NC(c2ccccc2)=C(C(=O)OCc2ccccc2)C1C#Cc1ccccc1 (stereo not drawn) [MRS-1191],number of peripheral olig2+ OPCs,[1]; [9],did not observe peripheral OPCs
"NS(=O)(=O)c1cccc2c1c([N+](=O)[O-])cc1[nH]c(=O)c(=O)[nH]c12 [NBQX, 2,3-Dioxo-6-nitro-1,2,3,4-tetrahydrobenzo[f]quinoxaline-7-sulfonamide]",peripherally migrated OPCs at 3 dpf after neurotransmitter receptor antagonist,"[1]; 36 to 72 hpf, olig2:dsred",significant numbers of peripherally-migrated OPCs
COc1cc2ncnc(Nc3cccc(Cl)c3)c2cc1OC [AG1478],peripheral OPC migration,[2],robust peripheral OPC migration
"C[C@]12N[C@H](Cc3ccccc31)c1ccccc12 [MK-801, (5S,10R)-(+)-5-Methyl-10,11-dihydro-5H-dibenzo[a,d]cyclohepten-5,10-imine maleate]",peripherally migrated OPCs at 3 dpf after neurotransmitter receptor antagonist,"[1]; 36 to 72 hpf, olig2:dsred",resulted in peripheral OPC migration
"Cn1c(=O)c2[nH]c(C3CCCC3)nc2n(C)c1=O [CPT, 8-cyclopentyltheophylline]",number of peripheral olig2+ OPCs,[1]; [9],did not observe peripheral OPCs
"Nc1nc2c(cnn2CCc2ccccc2)c2nc(-c3ccco3)nn12 [SCH-58261, 7-(2-phenylethyl)-5-amino-2-(2-furyl)-pyrazolo-[4,3-e]-1,2,4-triazolo[1,5-c]pyrimidine]",olig2+ OPCs in the periphery of gpr126 mutants,"[3]; 10 μM, 36 to 72 hpf, vs DMSO, p=0.009",significant number of olig2^+ OPCs in the periphery
same,MBP antibody labeling on peripheral nerves,"[3]; gpr126 mutants treated 36 to 72 hpf, fixed at 4 dpf",MBP labeling was present further distally along the nerve
same,nerves with OPCs on which EGFP+ membrane tubes ensheathed most of the nerve root,"[3]; gpr126−/− mbp:egfp;olig2:dsred, imaged 72 to 86 hpf",7 nerves
same,additional nerves with OPCs already present at the beginning of the time-lapse,[3]; [10],3 nerves
same,nerves onto which OPCs migrated out of the spinal cord during time-lapse,[3]; [10],4 nerves
same,ensheathment of peripheral motor axons by nkx2.2a+/olig2+ OPCs (time-lapse),"[3]; nkx2.2a:megfp;olig2:dsred;gpr126−/−, treated 36 to 72 hpf",initiate ensheathment of peripheral spinal motor axons
same,number of Eos+ cells per nerve compared with DMSO,[4],not significantly different
same,number of peripheral olig2+ OPCs,"[1]; 10 μM, p<0.01 compared to DMSO",significant numbers of peripheral olig2^+ OPCs
same,peripheral OPC migration by treatment window,"[1]; 10 μM, exposure beginning later than 54 hpf or ending earlier than 54 hpf, counted at 3 dpf",did not result in any peripheral OPC migration
same,peripheral OPCs in WT or adora2aa−/− mutants,"[1]; SCH-58261 36 to 72 hpf, olig2:dsred, treatment p<0.0001, genotype p=0.53",observed peripheral OPCs in both genotypes
same,percentage of motor nerves with sox10+/olig2+ MEP glia at the MEP TZ,[5]; 10 μM,no differences
CC1(C)[C@@H](OC(=O)CCC(=O)O)CC[C@]2(C)[C@H]3C(=O)C=C4[C@@H]5C[C@@](C)(C(=O)O)CC[C@]5(C)CC[C@@]4(C)[C@]3(C)CC[C@@H]12 [carbenoxolone],larvae that died at this dose,[6],9
same,"peripherally-migrated OPCs, treatment alone versus combined with TeNT mRNA","[1]; 10 μM, 36 to 72 hpf, counted at 72 hpf, p=0.04",more peripherally-migrated OPCs
same,peripherally-migrated OPCs at 3 dpf,"[1]; 36 to 72 hpf, p<0.001 for 10 μM and p<0.0001 for 20 μM",significant numbers of peripherally-migrated OPCs
"Nc1nc2ccc(Cl)cc2c2nc(-c3ccco3)nn12 [CGS-15943, 9-Chloro-2-(2-furanyl)-[1,2,4]triazolo[1,5-c]quinazolin-5-amine]",OPCs migrating through a single MEP TZ,[7],≤ 2
same,nerves on which OPC cell bodies migrated onto peripheral spinal motor nerves during imaging,[7],6 out of 10
same,nerves on which OPCs extend membrane processes through the MEP TZ,[7],9 out of 10
same,nerves with OPCs already present before 60 hpf,[7],3 out of 10
same,nerves with olig2+/sox10− motor neurons in the periphery,[7],0 out of 10
same,PG extension from the spinal cord along the motor nerve (mean SEM),"[8]; 55 hpf larvae, 10 nerves per larva",24.94±1.75 μm
same,PG extension compared with DMSO-treated larvae,[8]; p=0.28,no difference in PG extension
same,number of peripheral olig2+ OPCs,"[1]; doses of 1.25 and 20 μM, p<0.01",significant peripheral OPC migration
same,wif1+ MEP glia (in situ hybridization),[5]; 1.25 μM,observed wif1^+ MEP glia; also recorded: have wif1^+ MEP glia
same,percentage of motor nerves with sox10+/olig2+ MEP glia at the MEP TZ,[5]; 1.25 μM,no differences
